Data as given in the supplement of paper PMC4862054.
“And” between values parts separate entries of the source, which are not always exact repeats. Equal values may be shown once. One block for each compound: values may come before it.

Experiments:
MDA-MB-453 [1] = details: 72 h
Procedure, shortened: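 Breast cancer cell lines in 20 µl suspension were seeded onto 384-well plates that already held compound dissolved in 5 µl medium and were incubated for 72 h. Viability was measured by adding 2.5 µl CellTiter-Blue for 2 h at 37 °C and reading fluorescence at 560/590 nm. Each plate was normalised to vehicle and a positive kill control and checked by Z'-factor. EC50 was taken from a fitted percent-inhibition dose-response curve, censored at the highest concentration, and rows with a drug sensitivity score of zero were removed.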

CAL-148 [2] = assay: normalised viability (% of control), CellTiter-Blue; higher = more viable cells (about 100 = DMSO control); details: incubation time: 72 h
Method: (§1)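 DSRT, CellTiter-Blue viability, 72 h incubation. Signal is normalised to DMSO and benzethonium chloride controls. Value is the normalised response at dose 6.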

DU-4475 [3] = assay: as above; details: incubation time: 72 h
Method: as §1

MDA-MB-453 [4] = assay: as above; details: incubation time: 72 h
Method: as §1

CAL-51 [5] = assay: as above; details: incubation time: 72 h
Method: as §1

CAL-85-1 [6] = assay: as above; details: incubation time: 72 h
Method: as §1

HDQ-P1 [7] = assay: as above; details: incubation time: 72 h
Method: as §1

HCC1937 = assay: as above; details: incubation time: 72 h
Method: (§2)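 DSRT, CellTiter-Blue viability, 72 h incubation. Signal is normalised to DMSO and benzethonium chloride controls. Value is the normalised response at dose 3.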

HCC1599 = assay: as above; details: incubation time: 72 h
Method: as §2

CAL-120 = assay: as above; details: incubation time: 72 h
Method: as §2

CAL-148 [8] = assay: as above; details: incubation time: 72 h; remark: listed apart in the source
Method: as §2

MDA-MB-468 = assay: as above; details: incubation time: 72 h
Method: as §2

MDA-MB-231 = assay: as above; details: incubation time: 72 h
Method: as §2

BT-474 = assay: as above; details: incubation time: 72 h
Method: as §2

DU-4475 [9] = assay: as above; details: incubation time: 72 h; remark: listed apart in the source
Method: as §2

BT-549 = assay: as above; details: incubation time: 72 h
Method: as §2

MDA-MB-453 [10] = assay: as above; details: incubation time: 72 h; remark: listed apart in the source
Method: as §2

CAL-51 [11] = assay: as above; details: incubation time: 72 h; remark: listed apart in the source
Method: as §2

CAL-85-1 [12] = assay: as above; details: incubation time: 72 h; remark: listed apart in the source
Method: as §2

HDQ-P1 [13] = assay: as above; details: incubation time: 72 h; remark: listed apart in the source
Method: as §2

Hs578T = assay: as above; details: incubation time: 72 h
Method: as §2

MFM-223 = assay: as above; details: incubation time: 72 h
Method: as §2

MDA-MB-436 = assay: as above; details: incubation time: 72 h
Method: as §2

SK-BR-3 = assay: as above; details: incubation time: 72 h
Method: as §2

CAL-148 [14] = assay: as above; details: incubation time: 72 h; remark: listed apart in the source
Method: (§3)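 DSRT, CellTiter-Blue viability, 72 h incubation. Signal is normalised to DMSO and benzethonium chloride controls. Value is the normalised response at dose 9.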

MDA-MB-453 [15] = assay: as above; details: incubation time: 72 h; remark: listed apart in the source
Method: as §3

CAL-51 [16] = assay: as above; details: incubation time: 72 h; remark: listed apart in the source
Method: as §3

HDQ-P1 [17] = assay: as above; details: incubation time: 72 h; remark: listed apart in the source
Method: as §3

CAL-148 [18] = assay: normalised viability (% of control), CellTiter-Blue; higher = more viable cells (about 100 = DMSO control); details: incubation time: 72 h; remark: listed apart in the source
Procedure, shortened: (§4)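 Vehicle (100) and a positive kill control (0) anchored the normalisation of each plate, and Z'-factor was used for quality control. Breast cancer cell lines in 20 µl suspension were incubated 72 h over compound in 5 µl medium in 384-well plates, followed by CellTiter-Blue at 560/590 nm. The value is normalised viability at a single listed concentration of the series.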

MDA-MB-453 [19] = assay: as above; details: incubation time: 72 h; remark: listed apart in the source
Procedure, shortened: as §4

HCC1143 = assay: normalised viability (% of control), CellTiter-Blue; higher = more viable cells (about 100 = DMSO control); details: incubation time: 72 h
Method: as §2

EC50, CellTiter-Blue viability (MDA-MB-453 [1]): 0.0004 µM
SMILES: CO[C@H]1C[C@@H]2CC[C@@H](C)[C@@](O)(O2)C(=O)C(=O)N2CCCC[C@H]2C(=O)O[C@H]([C@H](C)C[C@@H]2CC[C@@H](OCCO)[C@H](OC)C2)CC(=O)[C@H](C)/C=C(\C)[C@@H](O)[C@@H](OC)C(=O)[C@H](C)C[C@H](C)/C=C/C=C/C=C/1C [Everolimus]
normalised viability (CAL-148 [2]; 30 nM): 42.9% and 41.6%
normalised viability (DU-4475 [3]; 30 nM): 50.6% and 60.2%
normalised viability (MDA-MB-453 [4]; 30 nM): 30.5% and 29.2%
normalised viability (CAL-51 [5]; 30 nM): 39.1% and 41.5%
normalised viability (CAL-85-1 [6]; 30 nM): 61.6% and 56.1%
normalised viability (HDQ-P1 [7]; 30 nM): 38.7% and 49%
normalised viability (HCC1937; 10 nM): 60.5% and 63.5%
normalised viability (HCC1599; 10 nM): 81.1% and 87.6%
normalised viability (CAL-120; 10 nM): 55.3% and 43%
normalised viability (CAL-148 [8]; 1 nM): 65.8% and 59.4%
normalised viability (MDA-MB-468; 10 nM): 84.1% and 59.7%
normalised viability (MDA-MB-231; 10 nM): 92.7% and 69.3%
normalised viability (BT-474; 10 nM): 65.6% and 61.3%
normalised viability (DU-4475 [9]; 1 nM): 96.6% and 83.4%
normalised viability (BT-549; 10 nM): 66.5% and 53.2%
normalised viability (MDA-MB-453 [10]; 1 nM): 44.9% and 39.9%
normalised viability (CAL-51 [11]; 1 nM): 70.1% and 73.5%
normalised viability (CAL-85-1 [12]; 1 nM): 71.8% and 59.9%
normalised viability (HDQ-P1 [13]; 1 nM): 80.8% and 75%
normalised viability (Hs578T; 10 nM): 42.7% and 48.8%
normalised viability (MFM-223; 10 nM): 55.1% and 49%
normalised viability (MDA-MB-436; 10 nM): 86% and 80.2%
normalised viability (SK-BR-3; 10 nM): 48.1% and 51.2%
normalised viability (CAL-148 [14]; 1000 nM): 38% and 16.3%
normalised viability (MDA-MB-453 [15]; 1000 nM): 25.4% and 15.4%
normalised viability (CAL-51 [16]; 1000 nM): 37% and 28.9%
normalised viability (HDQ-P1 [17]; 1000 nM): 76.8% and 59.4%
normalised viability (CAL-148 [18]; 10 nM): 44.4% and 37.9%
normalised viability (MDA-MB-453 [19]; 10 nM): 32.7% and 28.1%

SMILES: Cc1cc2c(C(C)C)c(O)c(O)c(C=O)c2c(O)c1-c1c(C)cc2c(C(C)C)c(O)c(O)c(C=O)c2c1O [Gossypol]
normalised viability (CAL-148 [2]; 3000 nM): 114%
normalised viability (DU-4475 [3]; 3000 nM): 49.2%
normalised viability (MDA-MB-453 [4]; 3000 nM): 62.9%
normalised viability (CAL-51 [5]; 3000 nM): 96.6%
normalised viability (CAL-85-1 [6]; 3000 nM): 80.2%
normalised viability (HDQ-P1 [7]; 3000 nM): 105%
normalised viability (HCC1937; 1000 nM): 91.7%
normalised viability (HCC1599; 1000 nM): 97%
normalised viability (CAL-120; 1000 nM): 112%
normalised viability (CAL-148 [8]; 100 nM): 105%
normalised viability (MDA-MB-468; 1000 nM): 58.1%
normalised viability (MDA-MB-231; 1000 nM): 93.6%
normalised viability (BT-474; 1000 nM): 113%
normalised viability (DU-4475 [9]; 100 nM): 99.7%
normalised viability (BT-549; 1000 nM): 95%
normalised viability (MDA-MB-453 [10]; 100 nM): 110%
normalised viability (CAL-51 [11]; 100 nM): 96.5%
normalised viability (CAL-85-1 [12]; 100 nM): 97.3%
normalised viability (HCC1143; 1000 nM): 98.2%
normalised viability (HDQ-P1 [13]; 100 nM): 126%
normalised viability (Hs578T; 1000 nM): 100%
normalised viability (MFM-223; 1000 nM): 96.5%
normalised viability (MDA-MB-436; 1000 nM): 96.2%
normalised viability (SK-BR-3; 1000 nM): 92.9%
normalised viability (CAL-148 [14]; 100000 nM): 3.73%
normalised viability (MDA-MB-453 [15]; 100000 nM): 2.75%
normalised viability (CAL-51 [16]; 100000 nM): 2.71%
normalised viability (HDQ-P1 [17]; 100000 nM): 4.15%
normalised viability (CAL-148 [18]; 1000 nM): 107%
normalised viability (MDA-MB-453 [19]; 1000 nM): 105%

EC50, CellTiter-Blue viability (MDA-MB-453 [1]): 4.54 µM
SMILES: Cc1ccc(NC(=O)c2ccc(CN3CCN(C)CC3)cc2)cc1Nc1nccc(-c2cccnc2)n1 [Imatinib]
normalised viability (CAL-148 [2]; 300 nM): 83.5% and 104%
normalised viability (DU-4475 [3]; 300 nM): 97.8% and 89.4%
normalised viability (MDA-MB-453 [4]; 300 nM): 86.5% and 88.3%
normalised viability (CAL-51 [5]; 300 nM): 106% and 102%
normalised viability (CAL-85-1 [6]; 300 nM): 101% and 94.4%
normalised viability (HDQ-P1 [7]; 300 nM): 74.9% and 72.5%
normalised viability (HCC1937; 100 nM): 94.5%
normalised viability (HCC1599; 100 nM): 96.5% and 97.5%
normalised viability (CAL-120; 100 nM): 87.8% and 94.7%
normalised viability (CAL-148 [8]; 10 nM): 84.3% and 89%
normalised viability (MDA-MB-468; 100 nM): 99.2% and 98%
normalised viability (BT-474; 100 nM): 103% and 126%
normalised viability (DU-4475 [9]; 10 nM): 106% and 95.3%
normalised viability (BT-549; 100 nM): 102% and 109%
normalised viability (MDA-MB-453 [10]; 10 nM): 104% and 94.3%
normalised viability (CAL-51 [11]; 10 nM): 106% and 107%
normalised viability (CAL-85-1 [12]; 10 nM): 102% and 92.3%
normalised viability (HCC1143; 100 nM): 85.9% and 82.9%
normalised viability (HDQ-P1 [13]; 10 nM): 106% and 126%
normalised viability (Hs578T; 100 nM): 95.2% and 103%
normalised viability (MFM-223; 100 nM): 94.8% and 92.4%
normalised viability (MDA-MB-436; 100 nM): 94.8% and 107%
normalised viability (SK-BR-3; 100 nM): 86.2% and 75.6%
normalised viability (CAL-148 [14]; 10000 nM): 80.5% and 92.7%
normalised viability (MDA-MB-453 [15]; 10000 nM): 57.6% and 48.6%
normalised viability (CAL-51 [16]; 10000 nM): 110% and 93.9%
normalised viability (CAL-148 [18]; 100 nM): 85.4% and 91.8%
normalised viability (MDA-MB-453 [19]; 100 nM): 104% and 99.3%

SMILES: CNNCc1ccc(C(=O)NC(C)C)cc1 [Procarbazine]
normalised viability (CAL-148 [2]; 300 nM): 101%
normalised viability (DU-4475 [3]; 300 nM): 83.2%
normalised viability (MDA-MB-453 [4]; 300 nM): 101%
normalised viability (CAL-51 [5]; 300 nM): 105%
normalised viability (CAL-85-1 [6]; 300 nM): 100%
normalised viability (HDQ-P1 [7]; 300 nM): 97.5%
normalised viability (HCC1937; 100 nM): 85.3%
normalised viability (HCC1599; 100 nM): 94.8%
normalised viability (CAL-120; 100 nM): 106%
normalised viability (CAL-148 [8]; 10 nM): 98.1%
normalised viability (MDA-MB-468; 100 nM): 102%
normalised viability (MDA-MB-231; 100 nM): 105%
normalised viability (BT-474; 100 nM): 114%
normalised viability (DU-4475 [9]; 10 nM): 112%
normalised viability (BT-549; 100 nM): 111%
normalised viability (MDA-MB-453 [10]; 10 nM): 105%
normalised viability (CAL-51 [11]; 10 nM): 109%
normalised viability (CAL-85-1 [12]; 10 nM): 97.8%
normalised viability (HCC1143; 100 nM): 98.7%
normalised viability (HDQ-P1 [13]; 10 nM): 128%
normalised viability (Hs578T; 100 nM): 104%
normalised viability (MFM-223; 100 nM): 92.8%
normalised viability (MDA-MB-436; 100 nM): 97%
normalised viability (SK-BR-3; 100 nM): 92%
normalised viability (CAL-148 [14]; 10000 nM): 97%
normalised viability (MDA-MB-453 [15]; 10000 nM): 110%
normalised viability (CAL-51 [16]; 10000 nM): 102%
normalised viability (HDQ-P1 [17]; 10000 nM): 124%
normalised viability (CAL-148 [18]; 100 nM): 99%
normalised viability (MDA-MB-453 [19]; 100 nM): 109%
